Measured values as given in PMC12040169 (PLOS Biology, 2025).

experiment: in vitro; settings: human, hela cells, % viability

Compared with `CS(=O)(=O)N1CC2(CCN(C(=O)[C@@H](N)COCc3ccccc3)CC2)c2ccccc21` [CBK022597C], `O=C(CO)N1CC2(CCN(CCS(=O)(=O)c3ccccc3)CC2)c2ccccc21` [CBK131505] is lower in viability at 28.5 h, 10 µM: 104% for the first, 97.9% for the second.

Compared with `O=C(Cc1ccc(-c2ccccc2)cc1)N1CCc2nc3ccccc3c(=O)n2CC1` [CBK286312], `O=c1c2ccccc2nc2c3ccccc3c(NCc3ccccn3)nn12` [CBK265964] is lower in viability at 28.5 h, 10 µM: 97.2% for the first, 89.3% for the second.

Going from `CC(=O)Nc1cccc(C(=O)NC2CC(=O)N(C3CCCCCC3)C2)c1` (stereo not drawn) [CBK307455] to `O=C(Nc1ccc2ccccc2c1)N1CCN(C(=O)C2CCCO2)CC1` (stereo not drawn) [CBK044043], the viability at 28.5 h, 10 µM falls from 102% to 96.6%.

Compared with `O=c1[nH]c2ncc(-c3cccc4cccnc34)nc2n1C1CCCCC1` [CBK064215], `Cn1cc(C2CCCCCN2S(=O)(=O)c2ccc3[nH]c(=O)[nH]c(=O)c3c2)cn1` (stereo not drawn) [CBK286406] is higher in viability at 28.5 h, 10 µM: 96% for the first, 103% for the second.

Going from `CCC(NC(=O)Nc1ccccc1C(=O)O)(C(F)(F)F)C(F)(F)F` [CBK268000] to `COc1cc(OC)nc(Oc2ccccc2C(=O)O)n1` [CBK092218], the viability at 28.5 h, 10 µM falls from 93.2% to 84.6%.

First: CNC(=O)c1ccc(NS(=O)(=O)c2ccc(OC(F)(F)F)cc2)cc1 [CBK043495]
Second: O=C(Nc1ccncc1)c1ccc(S(=O)(=O)N2CCCC2)cc1 [CBK287786]
The viability at 28.5 h, 10 µM of the first is lower: 96.7% for the first, 106% for the second.

Compared with `CN(C)CCn1cnc2c1c(=O)[nH]c(=O)n2Cc1ccccc1` [CBK291235], `CN(Cc1ccccc1)S(=O)(=O)c1ccccc1[N+](=O)[O-]` [CBK261458] is lower in viability at 28.5 h, 10 µM: 96.9% for the first, 92.3% for the second.

Going from `CN(C)c1ccc(-c2nc(-c3ccco3)cnc2N)cc1` [CBK063934] to `COc1ccc(-c2cnn(-c3ccc(OC)cc3)n2)cc1` [CBK112745], the viability at 28.5 h, 10 µM rises from 104% to 106%.

First: CC(C)(C)OC(=O)N1CCN(S(=O)(=O)c2ccc(Br)cc2)CC1 [CBK143623]
Second: CC(C)(C)OC(=O)N(CCCN1CCN(c2ccc(F)cc2)CC1)c1ccccc1 [CBK016723]
The viability at 28.5 h, 10 µM of the first is higher: 91.8% for the first, 89.2% for the second.

First: O=C(Nc1nnc(-c2ccco2)o1)C(c1ccccc1)c1ccccc1 [CBK287424]
Second: O=C1N(CN2CCN(C(c3ccccc3)c3ccccc3)CC2)c2ccccc2C12OCCO2 [CBK265537]
The viability at 28.5 h, 10 µM of the first is higher: 91.9% for the first, 87.1% for the second.

Going from `CCn1ncc2c(C(=O)NC(C)COC)cc(-c3cccs3)nc21` (stereo not drawn) [CBK304955] to `Cc1nn(CC(=O)NC(C)(C)C)c(=O)c2cc3ccsc3n12` [CBK284082], the viability at 28.5 h, 10 µM falls from 87.1% to 83.2%.

Compared with `c1ccc(-c2csc(Nc3cccnc3)n2)nc1` [CBK267184], `O=C(NCc1cccnc1)/C(=N\O)c1ccccc1` [CBK288416] is lower in viability at 28.5 h, 10 µM: 107% for the first, 102% for the second.

First: CC(C)C[C@@H]1NC(=O)C2(C/C=C/C[C@@H]3COCC[C@@H]3NC1=O)CCN(C(=O)[C@H](CO)NC(=O)OCc1ccccc1)CC2 [CBK292191]
Second: O=C(O)C(CC(=O)N1CCOCC1)NCc1ccccc1 (stereo not drawn) [CBK267000]
The viability at 28.5 h, 10 µM of the first is higher: 102% for the first, 100% for the second.

`CSc1[nH]nc(-c2ccc(C(C)(C)C)cc2)c1C#N` [CBK016999] and `CN(C(=O)Cn1cc(C(=O)NCC(C)(C)c2ccc(F)cc2)ccc1=O)c1ccccc1` [CBK285662] are the same in viability at 28.5 h, 10 µM: 108% for the first, 108% for the second.

Going from `CC(C)Cc1nsc(NC2CCCN(c3ccn(C)n3)C2=O)n1` (stereo not drawn) [CBK304696] to `CCC(=O)N1CCCC(c2nnc(-c3cccs3)o2)C1` (stereo not drawn) [CBK283060], the viability at 28.5 h, 10 µM rises from 91.2% to 92%.

Going from `Cc1cc(N(C)C)cc(C2CCCN(C(=O)C3CCC3)C2)n1` (stereo not drawn) [CBK282004] to `Cc1cc(-c2cn(C)nc2C2CCCCN2C(=O)C2CCCC2)on1` (stereo not drawn) [CBK283404], the viability at 28.5 h, 10 µM rises from 88.7% to 96.9%.

Going from `CCOc1cc(Cl)c(S(=O)(=O)NCCCN2CCOCC2)cc1Cl` [CBK268781] to `COc1ccc(Cl)cc1S(=O)(=O)N1CCC(C(N)=O)(N2CCCCC2)CC1` [CBK269571], the viability at 28.5 h, 10 µM rises from 87.9% to 97.9%.

Going from `Cc1nc(NC(=O)c2cccc(NC(=O)C3CCCO3)c2)sc1-c1n[nH]c(=S)n1C` (stereo not drawn) [CBK295341] to `Cc1ccc2[nH]c(CNC(=O)c3cn[nH]c3C3CCCCN3)nc2c1` (stereo not drawn) [CBK304741], the viability at 28.5 h, 10 µM rises from 86.9% to 100%.

Compared with `Fc1ccc(-n2nnnc2SCc2ccc(Cl)cc2)cc1Cl` [CBK102075], `O/N=C(\Cn1cncn1)c1ccc(Cl)cc1Cl` [CBK261085] is lower in viability at 28.5 h, 10 µM: 97.5% for the first, 93.5% for the second.

Compared with `Cc1nc(N/C(=N/C(=O)c2ccccc2)NC(=O)c2ccccc2)nc2ccccc12` [CBK262529], `O=C(Nc1ncc(-c2ccccc2)s1)c1cccc([N+](=O)[O-])c1` [CBK157055] is lower in viability at 28.5 h, 10 µM: 103% for the first, 92.7% for the second.

First: CCCc1cc(=O)oc2cc(OCc3ccc(C(=O)O)o3)ccc12 [CBK264786]
Second: COc1cccc2cc(C(=O)NCc3cccc4ccccc34)oc12 [CBK149800]
The viability at 28.5 h, 10 µM of the first is higher: 108% for the first, 78.6% for the second.

Compared with `Nc1nc(CCN2CCOCC2=O)cs1` [CBK003792], `CN1C(=O)CC(NCc2ccc(S(N)(=O)=O)cc2)C1=O` (stereo not drawn) [CBK262352] is higher in viability at 28.5 h, 10 µM: 85.8% for the first, 87.4% for the second.

Compared with `CN1CCN(CC(=O)N/N=C/C2CC=CCC2)CC1` (stereo not drawn) [CBK019340], `COC(=O)c1ccc(N2CCN(C)CC2)c([N+](=O)[O-])c1` [CBK264341] is higher in viability at 28.5 h, 10 µM: 89.6% for the first, 99.4% for the second.

Compared with `COCC(C)NS(=O)(=O)c1cc(Cl)ccc1OC` (stereo not drawn) [CBK270203], `COc1ccc(CCn2cncc2-c2cn(C)nc2C)cc1C` [CBK281814] is higher in viability at 28.5 h, 10 µM: 90.7% for the first, 102% for the second.

Going from `Clc1ccc(CN2CCN(c3nccnc3OCc3cccnc3)CC2)cc1Cl` [CBK083128T] to `O=C(NCC1CCOCC1)c1cc(-c2cccnc2)cnc1NCc1ccc2c(c1)OCO2` [CBK154825], the viability at 28.5 h, 10 µM falls from 105% to 104%.

Going from `O=[N+]([O-])c1nn(-c2ccccc2)[n+]([O-])c1Nc1ccc(Br)cc1` [CBK268504] to `CN1CCN(c2ccc(NC(=O)c3cc4oc(-c5ccccc5)nc4c(=O)n3C)cc2)CC1` [CBK200425], the viability at 28.5 h, 10 µM falls from 98.7% to 94.9%.

Compared with `Cc1ccc(S(=O)(=O)Oc2c(C=C3C(=O)CC(C)(C)CC3=O)[nH]c3ccccc23)cc1` [CBK263464], `CCOC(=O)c1ccc(N2C(=O)CC(N3CCN(c4ccc(S(C)(=O)=O)cc4)CC3)C2=O)cc1` (stereo not drawn) [CBK268721] is higher in viability at 28.5 h, 10 µM: 94.4% for the first, 103% for the second.

Going from `O=C(Nc1ccc([C@@H](O)[C@H]2COCC(=O)N2Cc2ccccc2F)cc1)c1cnccn1` [CBK289060] to `O=c1cc(O)c2ccccc2n1Cc1ccccc1Cl` [CBK291255], the viability at 28.5 h, 10 µM rises from 83.2% to 93.4%.

First: CCn1c2ccccc2c2cc(Nc3cc(-c4ccc(OC(F)(F)F)cc4)ncn3)ccc21 [CBK090842]
Second: Cc1cc(SCC2=NNC(=O)C2)c(Cl)cc1Cl [CBK067769]
The viability at 28.5 h, 10 µM of the first is lower: 87.3% for the first, 92.8% for the second.

Compared with `Cn1nc2c(c1O)CCCC2` [CBK089897], `Cc1nc(S(=O)(=O)N2CCC(C(=O)N3CCCCCC3)CC2)cn1C` [CBK305765] is lower in viability at 28.5 h, 10 µM: 102% for the first, 99.3% for the second.

`CCOC(=O)C1(C2CCCCC2)CCN(C(=O)C2CCN(C)CC2)CC1` [CBK136948] showed a viability at 28.5 h, 10 µM of 92.7%.

same assay, conditions: human, hela cells, % viability, bulk resorufin, single well

First: c1cc(-c2ccc3c(c2)COC2(CCNCC2)O3)c2cccnc2c1 [CBK060995]
Second: Fc1ccc(OCCOc2ccccc2-c2ccc3c(c2)COC2(CCNCC2)O3)cc1 [CBK105745]
The viability at 28.5 h, 10 µM of the first is higher: 104% for the first, 88.7% for the second.
